# According to publication PMC6312923 (Life Science Alliance, 2018):
# B1: Cdt2^PIP-3A: Cdt2 with I709, Y712, and F713 all mutated to alanine (protein, UniProt Q9NZJ0 1-730, looked up, variant I709A Y712A F713A)
# Denticleless protein homolog: MLFNSVLRQPQLGVLRNGWSSQYPLQSLLTGYQCSGNDEHTSYGETGVPVPPFGCTFSSAPNMEHVLAVANEEGFVRLYNTESQSFRKKCFKEWMAHWNAVFDLAWVPGELKLVTAAGDQTAKFWDVKAGELIGTCKGHQCSLKSVAFSKFEKAVFCTGGRDGNIMVWDTRCNKKDGFYRQVNQISGAHNTSDKQTPSKPKKKQNSKGLAPSVDFQQSVTVVLFQDENTLVSAGAVDGIIKVWDLRKNYTAYRQEPIASKSFLYPGSSTRKLGYSSLILDSTGSTLFANCTDDNIYMFNMTGLKTSPVAIFNGHQNSTFYVKSSLSPDDQFLVSGSSDEAAYIWKVSTPWQPPTVLLGHSQEVTSVCWCPSDFTKIATCSDDNTLKIWRLNRGLEEKPGGDKLSTVGWASQKKKESRPGLVTVTSSQSTPAKAPRAKCNPSNSSPSSAACAPSCAGDLPLPSNTPTFSIKTSPAKARSPINRRGSVSSVSPKPPSSFKMSIRNWVTRTPSSSPPITPPASETKIMSPRKALIPVSQKSSQAEACSESRNRVKRRLDSSCLESVKQKCVKSCNCVTELDGQVENLHLDLCCLAGNQEDLSKDSLGPTKSSKIEGAGTSISEPPSPISPYASESCGTLPLPLRPCGEGSEMVGKENSSPENKNWLLAMAAKRKAENPSPRSPSSQTPNSRRQSGKKLPSPVTITPSSMRKACTAAHRKSQEDFCGPEHSTEL
# modifications: FLAG tag
# notes: Cdt2 with I709, Y712, and F713 all mutated to alanine
# Tests used:
# Type in all cases: cell-based, human
# [1] = tested on: MCF7 cells, DNA-damage (CPD) sites; assay: Recruitment of GFP-Cdt2 constructs to DNA-damage sites in MCF7 cells; settings: MCF7, UV-C 50 J/m^2, GFP fusions; two independent experiments
# Text: Figure 2. The C-terminus of Cdt2 mediates Cdt2 recruitment to sites of damage. (A) A schematic drawing of the domain structure of Cdt2 and constructs used. (B) The C-terminal, but not the N-terminal, part of Cdt2 mediates recruitment to DNA damage sites. MCF7 cells transfected with the indicated plasmids were locally UV-C irradiated (50 J/m^2 through 5 μm pore diameter micropore filters), and recruitment of each Cdt2 construct to sites of damage was examined by staining with α-CPD antibody and GFP signal.
# For Western blotting, whole-cell lysates were prepared by lysing cell pellets directly in SDS–PAGE buffer. For immunofluorescence, U2OS or HEK293 cells were fixed in 4% paraformaldehyde (PFA; WAKO) for 10 min, permeabilized in 0.25% (vol/vol) Triton X-100 in PBS, and stained with the indicated antibodies as described previously. […] For cyclobutane pyrimidine dimer (CPDs) staining, MCF7 and HeLa cells were fixed in 4% PFA for 10 min, permeabilized in 0.3% Triton X-100 in PBS, and then incubated in 0.5 N NaOH for 5 min for DNA denaturation before immunofluorescence. Alexa488-conjugated anti-mouse and […] anti-rabbit antibodies were used as secondary antibodies with Hoechst 33258 to visualize DNA. […] Protein levels were analysed by ImageJ software.
# We used a method to induce DNA photoproducts within localized areas of the cell nucleus as described in Ishii et al (2010). To perform micropore UV irradiation, cells were cultured on cover slips, washed twice with PBS, and subsequently covered with an isopore polycarbonate membrane filter (Millipore) with a pore size of either 3 or 5 μm in diameter, and irradiated. UV irradiation was achieved using a UV lamp (SUV-16, As One, Japan) with a dose rate of 0.4 J/m^2·s, which was monitored with a UV radiometer (UVX Radiometer, UVP) at 254 nm, or with a UV box equipped with a UV-C lamp monitored with a VLX-3W radiometer (Vilber Lourmat) at 254 nm (CX-254 sensor). The filter was removed and cells were either fixed or cultured for the indicated time before fixation, and processed for immunofluorescence. […]
# [2] = tested on: U2OS cells; assay: Nuclear enlargement / re-replication in U2OS cells; settings: siCdt2 72 h
# Experimental: Next, we examined Cdt1 degradation after the onset of the S phase in the Cdt2^PIP-3A-expressing cells. Cyclin A is present in the S and G2 phase, when Cdt1 should be degraded. Thus, Cdt1 should be present in cells that are negative for cyclin A, and absent in cells that are positive for cyclin A ([Nishitani et al, 2006]; [Xouri et al., 2007a], [2007b]). Cdt1 degradation after the onset of the S phase is carried out by two ubiquitin ligases, CRL1^Skp2 and CRL4^Cdt2. We depleted the substrate recognition subunits, Cdt2 and/or Skp2, by siRNA, and the percentage of Cdt1 positive cells among cyclin A–positive cells was assessed by immunofluorescence. In control siRNA-transfected U2OS cells, ∼2% of cyclin A–positive cells stained positive for Cdt1. […]
# Figure 8. […] The frequency of Cdt1-positive (+) cells among cyclin A–positive (+) cells was calculated (n = 3). […] (D) Cells treated with siCdt2 or control siLuc were measured for their nuclear size (n = 200 for each), and are shown in a scatter plot. […]
# Double-stranded RNAs were transfected at 100 nM using Oligofectamine (Invitrogen) or HiPerFect (QIAGEN). […] For Cdt1 silencing in Fig 1A and B, unsychronized HeLa cells were transfected twice with 200 nM of Cdt1 siRNA or control luciferase siRNA using Lipofectamine 2000 with a time interval of 24 h and were analysed 48 h after the second transfection. […]
# [3] = tested on: HEK293 cells, UV-irradiated sites; assay: Recruitment of FLAG-Cdt2 to UV-irradiated (XPA) sites in HEK293 cells; settings: stable HEK293 cells, XPA-positive spots
# Experimental: Figure 6. The Cdt2 PIP box is important for its recruitment to DNA damage sites and replication foci and for poly-ubiquitination activity. (A) HEK293 and stable Cdt2^WT or Cdt2^PIP-3A cells were locally UV irradiated, and stained for XPA and FLAG (Cdt2). XPA-positive spots were examined for FLAG signal, and its frequency was counted (%). More than 50 spots were examined. bar:10 μm. […] Bar: 10 μm. […] (D) Whole-cell extracts were prepared from HEK293 and stably transfected cells of Cdt2^WT or Cdt2^PIP-3A cells, separated into soluble (Sup) and chromatin-containing insoluble (Ppt) fractions, and were examined for indicated proteins. The asterisk indicates nonspecific bands. (E) HEK293 and stably transfected cells of Cdt2^WT or Cdt2^PIP-3A were treated with MG132 for 3 h. […]
# For Western blotting, whole-cell lysates were prepared by lysing cell pellets directly in SDS–PAGE buffer. […] Protein levels were analysed by ImageJ software.
# We used a method to induce DNA photoproducts within localized areas of the cell nucleus as described in Ishii et al (2010). […] UV irradiation was achieved using a UV lamp (SUV-16, As One, Japan) with a dose rate of 0.4 J/m^2·s, which was monitored with a UV radiometer (UVX Radiometer, UVP) at 254 nm, or with a UV box equipped with a UV-C lamp monitored with a VLX-3W radiometer (Vilber Lourmat) at 254 nm (CX-254 sensor). […]
# [4] = tested on: p21 poly-ubiquitination; assay: Poly-ubiquitination of p21 in HEK293 cells; settings: HEK293, MG132 3 h, chromatin fraction
# Experimental: Figure 6. The Cdt2 PIP box is important for its recruitment to DNA damage sites and replication foci and for poly-ubiquitination activity. (A) HEK293 and stable Cdt2^WT or Cdt2^PIP-3A cells were locally UV irradiated, and stained for XPA and FLAG (Cdt2). XPA-positive spots were examined for FLAG signal, and its frequency was counted (%). More than 50 spots were examined. bar:10 μm. […] Bar: 10 μm. […] (D) Whole-cell extracts were prepared from HEK293 and stably transfected cells of Cdt2^WT or Cdt2^PIP-3A cells, separated into soluble (Sup) and chromatin-containing insoluble (Ppt) fractions, and were examined for indicated proteins. The asterisk indicates nonspecific bands. (E) HEK293 and stably transfected cells of Cdt2^WT or Cdt2^PIP-3A were treated with MG132 for 3 h. Whole-cell extracts (WCE) were prepared, separated into soluble (Sup) and insoluble (Ppt) fractions, and blotted with the indicated antibodies.
# To consider this possibility, asynchronously growing control HEK293 cells and cells expressing Cdt2^WT or Cdt2^PIP-3A were treated with proteasome inhibitor MG132 and the levels of poly-ubiquitinated Cdt1 were examined. […] Cdt2^PIP-3A-expressing cells however had reduced level of both poly-ubiquitinated Cdt1 and p21 on chromatin.
Molecule,recruitment to DNA-damage sites [1],enlarged nuclei (re-replication) phenotype [2],recruitment to UV-irradiated sites [3],poly-ubiquitinated p21 on chromatin [4]
"Cdt2: Cdt2 tagged with GFP, transiently expressed in MCF7 cells",robustly detected at DNA-damage sites,rescued,–,–
B1,–,–,not recruited to UV-irradiated sites,reduced level
